Measurements reported in publication PMC10969810, “Green Extraction Strategy Using Bio-Based Aqueous Biphasic Systems for Polyphenol Valorization from Grape By-Product” (Foods, 2024).
≈ marks a conversion by molar mass, not a printed value. Where “and” joins values, the source holds several entries; their conditions need not be identical. Equal values may be shown once. Read-outs that look alike come from different tables or passages of the source.

Legend:
[1] = cited from earlier work
[2] = Partition of polyphenols in cholinium salt/IL + PPG400 + water aqueous biphasic systems; format: physicochemical; conditions: for increase in RE by increasing the TLL: TLL 56.88 to 101.43, polyphenol content 2.5 g per L of ABS, pH~6, 25 °C
Procedure: Considering previously established phase diagrams of ABSs, ternary mixtures within the biphasic region were prepared, containing 20 wt% salt/IL + 50 wt% PPG400 + 30 wt% of H2O +10 μL of polyphenol solution. The polyphenol solutions were prepared in 80 vol% ethanol, with concentrations of circa 2500 mg L^−1 for each compound. […] The selected compositions of ABSs and corresponding TLLs are given in the Supplementary Materials.
Each ABS was prepared in 1.5 mL microcentrifuge tubes by adding the appropriate amount of constituents to achieve a final weight of 1 g. All systems were vigorously agitated (Reax Top, Heidolph, Schwabach, Germany) and left for 2 h at 25 °C in a thermo-shaker incubator (ALEMADR-MSC, Colo Lab Experts, Novo Mesto, Slovenia). Following 5 min of centrifugation at 5000× g rpm (LLG-uniCFUGE 5, Meckenheim, Germany), the phases were carefully separated, and their weights and volumes were measured. After appropriate dilution and filtration using syringe filters (0.45 μm), the contents of polyphenols in the phases were quantified by high-performance liquid chromatography (HPLC), as described in Section 2.5.
The logarithmic distribution coefficients (logD) of the polyphenols were calculated as the ratio of the equilibrium concentration of each polyphenol in the PPG400-rich and IL/salt-rich phases, as follows:(1) logD=log [Polyphenol]PPG400-phase/[Polyphenol]IL/salt-phase.
The selectivities (S) with respect to gallic acid were calculated according to the following equation:(4) SGA/Polyphenol=DGA/DPolyphenol where the subscript “Polyphenol” stands for resveratrol or quercetin.
The quantification of polyphenols was carried out using HPLC (Knauer, Berlin, Germany), which includes a DAD detector and an Ascentis C18 (SUPELCO), Darmstadt, Germany, column with a particle size of 5 µm and dimensions 250 mm × 4.6 mm. Chromatographic separation of the target polyphenols occurred at a constant flow rate of 1 mL min^−1, the injection volume for all samples was 20 μL, and the temperature of the column was fixed at 45 °C, with 10% acetonitrile (v/v) as mobile phase A and pure acetonitrile as mobile phase B. For partition studies, isocratic conditions were used for the determination of each compound (A:B = 60:40). Quantification in a complex sample after extraction from the real sample was achieved using a gradient mode, varying the mobile phase from 100% A to 100% B for 30 min.

[3] = Recovery of polyphenols from grape stem extract with [Ch][DHP]/PPG400 ABS; format: physicochemical; conditions: 40 wt% PPG400 + 25 wt% [Ch][DHP], 25 °C, pH ~6, TLL ~101, ~5 mg extract per g ABS
Procedure: Grapes collected from Quinta das Carvalhas, Pinhao (Regiao Demarcada do Douro, Portugal), were first separated into stems, seeds, and skins. All samples were freeze-dried, ground into powder, and stored in a desiccator. Two grams of the grape stem powder was mixed with 100 mL of a water:ethanol mixture (1:1, v:v), followed by stirring for 2 h and sonication for 5 min. The sample was centrifuged at 10,000× g rpm for 15 min, and the pellet was re-extracted. The supernatant was collected, and the solvent was evaporated under vacuum using a rotary evaporator at 40 °C. […]
The quantification of polyphenols was carried out using HPLC (Knauer, Berlin, Germany), which includes a DAD detector and an Ascentis C18 (SUPELCO), Darmstadt, Germany, column with a particle size of 5 µm and dimensions 250 mm × 4.6 mm. […] Quantification in a complex sample after extraction from the real sample was achieved using a gradient mode, varying the mobile phase from 100% A to 100% B for 30 min.
Guided by the results from the optimization studies, polyphenols were extracted from grape stem extract with specific conditions in mind based on previously determined extraction parameters. […] The RE for GA towards the [Ch][DHP] phase was 78.64%, and quercetin was not detected in the grape stem extract. […]

[4] = parameters: method as in doi:10.2478/s11696-013-0417-6, doi:10.1016/0016-7037(88)90089-0; conditions: cited from earlier work
[5] = Solubility determination (UV spectroscopy of saturated solutions); format: physicochemical; conditions: thermodynamic from solid
Procedure: Quantification was carried out using calibration curves (R^2 > 0.99 in all cases) for each analyzed compound within the concentration range of 2.5 to 50 mg L^-1.

[6] = parameters: method as in doi:10.1016/j.afres.2023.100381; conditions: ABSs of [Ch]Cl and different surfactants, rice husk hydrolysate; cited from earlier work
[7] = [Ch][DHP]/PPG400 ABS, tie line ~101, lowest phase volume ratio (0.20), 25 °C

## O=C(O)c1cc(O)c(O)c(O)c1 [GA, gallic acid]
[1]; no reference and method not given
  solubility in water: 14.38 mg/mL (≈ 84.5 mM)
[2]; [Ch][DHP]-based ABS, 20 wt% IL + 50 wt% PPG400, TLL 101.43, volume ratio 0.50, 25 °C
  recovery efficiency (RE) toward the IL-rich phase: 92.31 ± 2.31% and 90%
[2]; [Ch][DHP]/PPG400 ABS
  increase in RE by increasing the TLL: ~2%
[2]; [7]
  recovery efficiency (RE) toward the IL-rich phase: 88.7 ± 3.91%
[3]
  recovery efficiency from grape stem extract towards the [Ch][DHP] phase: 78.64%
[3]; listed as gallic acid
  recovery efficiency from grape stem extract towards the [Ch][DHP] phase: 78%
[4]; at 100 °C
  degradation: 30%
[4]
  temperature from which degradation begins: 60 °C
[5]; [Ch][DHP]/water 50:50, aqueous with cosolvent or surfactant or cyclodextrin, around 50 wt% [Ch][DHP] in water, 25 °C, read-out: maximal solubility in the [Ch][DHP]-rich phase
  solubility at 12 h: 140 mg/mL (≈ 822 mM)

## O=C(O)/C=C/c1ccc(O)cc1 [p-coumaric acid]
[6]
  yield in the surfactant-rich phase: over 90%

## O=c1c(O)c(-c2ccc(O)c(O)c2)oc2cc(O)cc(O)c12 [QC, quercetin]
[2]; [Ch][DHP]-based ABS, 25 °C
  selectivity SGA/QC (DGA/DQC): > 1000
[2]; [Ch][DHP]/PPG400 ABS
  increase in RE by increasing the TLL: ~9%
[2]; [7]
  recovery efficiency (RE) toward the PPG-rich phase: 55.70 ± 2.13%

## Oc1ccc(/C=C/c2cc(O)cc(O)c2)cc1 [RSV, trans-resveratrol]
[1]
  solubility in pure water: 0.039 mg/mL (≈ 0.171 mM)
[2]; [Ch][DHP]/PPG400 ABS
  increase in RE by increasing the TLL: circa 7%
[5]; PPG400/water 80:20 (v/v), aqueous with cosolvent or surfactant or cyclodextrin, PPG400/water 80:20, 25 °C, not the maximum solubility, read-out: solubility in PPG/water system matching the PPG phase
  solubility at 12 h: ≥ 100 mg/mL

## COc1cc(/C=C/C(=O)O)ccc1O [ferulic acid]
[6]
  yield in the surfactant-rich phase: over 90%
